Assay: xn = mol fraction of the nth substance listed
Conditions: 100 kPa

CCCC[n+]1ccc(C)cc1.[Br-] + CO/N=C(\C(=O)N[C@@H]1C(=O)N2C(C(=O)[O-])=C(CSc3nc(=O)c(=O)[n-]n3C)CS[C@H]12)c1csc(N)n1.[Na+].[Na+] + O
viscosity [mPa·s]
Conditions | 288.15 K | 293.15 K | 298.15 K | 303.15 K | 308.15 K
x2 = 0, x1 = 0.0007903 | 1.165 | 1.024 | 0.907 | 0.813 | 0.734
x2 = 0, x1 = 0.001191 | 1.176 | 1.037 | 0.919 | 0.824 | 0.745
x2 = 0, x1 = 0.001595 | 1.195 | 1.044 | 0.926 | 0.833 | 0.75
x2 = 0.0008523, x1 = 0.0007896 | 1.293 | 1.134 | 0.998 | 0.892 | 0.805
x2 = 0.0008581, x1 = 0.00119 | 1.321 | 1.176 | 1.024 | 0.918 | 0.827
x2 = 0.001389, x1 = 0.0007891 | 1.39 | 1.219 | 1.077 | 0.965 | 0.863
x2 = 0.001401, x1 = 0.001593 | 1.423 | 1.241 | 1.103 | 0.989 | 0.884
x2 = 0.001946, x1 = 0.0007887 | 1.504 | 1.31 | 1.157 | 1.035 | 0.931
x2 = 0.001971, x1 = 0.001189 | 1.511 | 1.342 | 1.183 | 1.055 | 0.948
x2 = 0.001975, x1 = 0.001592 | 1.545 | 1.355 | 1.192 | 1.065 | 0.954
x2 = 0.002543, x1 = 0.0007882 | 1.632 | 1.427 | 1.256 | 1.12 | 1.007
x2 = 0.002544, x1 = 0.001591 | 1.673 | 1.464 | 1.295 | 1.152 | 1.031
x2 = 0.003109, x1 = 0.001187 | 1.806 | 1.567 | 1.379 | 1.224 | 1.096
x2 = 0.003138, x1 = 0.0007878 | 1.767 | 1.543 | 1.364 | 1.213 | 1.086
x2 = 0.003151, x1 = 0.00159 | 1.823 | 1.589 | 1.399 | 1.244 | 1.113
x2 = 0.003944, x1 = 0.001186 | 2.024 | 1.764 | 1.544 | 1.369 | 1.222
x2 = 0.003953, x1 = 0.0007871 | 1.993 | 1.729 | 1.519 | 1.351 | 1.208
x2 = 0.003986, x1 = 0.001589 | 2.106 | 1.787 | 1.577 | 1.395 | 1.245
x2 = 0.004811, x1 = 0.001588 | 2.346 | 2.022 | 1.772 | 1.562 | 1.389
x2 = 0.004834, x1 = 0.0007864 | 2.266 | 1.959 | 1.718 | 1.524 | 1.35
x2 = 0.004855, x1 = 0.001185 | 2.32 | 2.01 | 1.757 | 1.552 | 1.38
x2 = 0.005536, x1 = 0.0007859 | 2.52 | 2.173 | 1.904 | 1.68 | 1.492
x2 = 0.005537, x1 = 0.001184 | 2.56 | 2.232 | 1.937 | 1.706 | 1.514
x2 = 0.005566, x1 = 0.001586 | 2.63 | 2.267 | 1.983 | 1.738 | 1.544

Source: the CheMixHub ionic liquid set
